# Patent US20100004303A1, “TREATMENT OF ENDOCRINE DYSFUNCTION USING IRON CHELATORS” (NOVARTIS AG, priority 2006, published 2010)
# Tests used:
# [1] = system: HJV−/− mice with iron overload; assay: Pancreas iron (ICP-OES) in HJV−/− mice with iron overload; type: in vivo
# Description: The spontaneous iron loading and the effect of 4-[3,5-bis(2-hydroxyphenyl)-[1,2,4]triazol-1-yl]benzoic acid (Compound I) has been examined upon the removal of iron in HJV−/− mice with iron overload.
# Methods: Inductively-Coupled Plasma Optical Emission Spectrometry (ICP-OES, measurement of elemental iron) determinations in spleen and pancreas were performed at week 8 (study start), 14, 20 and 28 in HJV−/− and wild type (wt) mice (n=6−8). Starting at week 20 three groups of HJV−/− animals received daily 0 (vehicle), 30 or 100 mg/kg of 4-[3,5-bis(2-hydroxyphenyl)-[1,2,4]triazol-1-yl]benzoic acid, control wt-mice remained untreated. Iron loading was observed up to 28 weeks, including vehicle group, and the effects of 4-[3,5-bis(2-hydroxyphenyl)-[1,2,4]triazol-1-yl]benzoic acid were assessed by comparing the 28-week groups. MRI R2* measurements were performed using a 4.7 MR imager.
# pancreatic Min6 cells = assay: Labile iron exposure of pancreatic Min6 cells: iron accumulation, cell damage, viability; type: cell-based
# Description: (§1) Among the functions affected by metal-evoked ROS are cell permselectivity (calcein leakage), mitochondrial membrane potential (JC1 test), electron transport activity (Alamar Blue) and cell viability (calcein-propidium iodide). It can be observed that administration of deferasirox at therapeutically achievable doses ([…]): […]
# pituitary Att20 cells = assay: Labile iron exposure of pituitary Att20 cells: iron accumulation, cell damage, viability; type: cell-based
# Description: as §1
# At20 pituitary cells = assay: Cytoprotective effect on acutely iron-overloaded At20 pituitary cells (calcein retention, Alamar-Blue, ACTH levels); type: cell-based; settings: cell culture conditions, pharmacological chelator concentrations
# Description: A major cause of biological damage associated with tissue iron accumulation is the cellular acquisition of circulating labile plasma iron (LPI) by endocytic mechanisms and ensuing metal-catalyzed oxidations. Endocrine cells are presumed to have endocytic abilities and/or high susceptibility to the formation of reactive oxygen intermediates (ROIs), particularly those generated in the presence of labile iron. As these properties might be implicated in the early onset of endocrine dysfunctions observed in transfusional hemosiderosis, a major goal of iron chelation therapy is to prevent iron ingress into endocrine cells and ensuing toxicity and/or removal of cell accumulated iron. Such properties of chelators have been afforded in cardiac cells (Glickstein et al, 2006, Blood In press) by treating LPI-carrying plasma with pharmacological attainable concentrations of orally active iron chelators in clinical practice. […] It has been explored here whether addition of 4-[3,5-bis(2-hydroxyphenyl)-[1,2,4]triazol-1-yl]benzoic acid could rescue acutely-iron-overloaded At20 pituitary cells from iron-toxicity, using fluorescence-plate reader and microscopy-imaging for live monitoring of cell functions and assessing toxicity in terms of: 1. cell integrity (calcein cell retention assay) 2. metabolic activities (mitochondrial Alamar-Blue assay) and 3. intracellular (ACTH) hormone levels.
# Diet-induced obese mice = assay: Oral glucose tolerance test and plasma insulin in diet-induced obese mice; type: in vivo; settings: compared to the control animals
# Description: Diet-induced obese mice are used for the study at 21-23 weeks of age. On the first day of the study, animals are fasted at 7:30 a.m. Body weight measurement and basal blood sample collection are conducted at 10:30 a.m. Plasma glucose values are then determined. Animals were assigned into 4 groups (n=10/group) with the plasma glucose values and body weights matched between the 4 groups. At 12 pm, the animals are dosed orally with vehicle (water) or the Compound I at 30 mg/kg or […] respectively. At 1:00 p.m. a blood sample (at 0 min) is taken followed by an oral glucose tolerance test (OGTT) at 1 g/kg (20% glucose in water) at a dose volume of 5 ml/kg. Blood samples are collected at 30, 60 and 120 min following the glucose administration. The animals are refed after the OGTT. […]
# Blood samples are taken during the study via tail bleeding. Plasma glucose concentrations are determined using a glucose meter (Ascensia Elite, Bayer Corp., Mishawaka, Ind.). […] Plasma insulin and glucagons levels are determined by Luminex assays using Mouse Endocrine Lincoplex kit (Linco Research, Inc., St. Charles, Mo.). […] Plasma triglyceride, fatty acid and total cholesterol levels are determined using a fluorescent assay based on Amplex Red kit (Molecular Probes, Eugene, Oreg.). […] Effects on cardiovascular diseases can also be assessed by further analysis on treated animals.
# subjects with IGM = assay: Multi-center, double-blind, randomized study in subjects with IGM; type: in vivo, human; settings: 8 weeks of treatment
# Description: Favorable effects can be verified that confirm that Compound I can restore early phase insulin secretion and reduce post-prandial glucose levels in subjects with IGM, or can prevent or delay the onset of Type 2 diabetes and cardiovascular diseases in subjects with IGM. A multi-center, double-blind, parallel group, randomized study can be conducted in subjects with IGM in order to evaluate the incidence of confirmed hypoglycemia and the effects on prandial glucose associated with the administration of Compound I, or placebo before each main meal during 8 weeks of treatment. […]
# Corresponding dosages of Compound I are administered daily depending on the number of main meals (breakfast, lunch, snack, dinner). […] HbA1c is to be measured at baseline and after 8 weeks of treatment (fasting glucose and fructosamine). Samples of blood are to be drawn at 10, 20, […], 60, 120, and 180 minutes after drug administration (time 0) and the glucose and insulin levels to be measured. […]
# [2] = model systems and humans; Hershko 2001, Nisbet Brown 2003; cited from earlier work
# [3] = 30-100 μM, incubated prior to or post iron-loading (acutely or chronically)
# [4] = 30-100 μM, present in the iron loading medium
# [5] = 30-100 μm, incubated prior to or post iron-loading (acutely or chronically)
smiles,measurement,setting,value
"O=C(O)c1ccc(-n2nc(-c3ccccc3O)nc2-c2ccccc2O)cc1 [Compound I, 4-[3,5-Bis-(2-hydroxyphenyl)-[1,2,4]-triazol-1-yl]benzoic acid]",pancreas iron ± SEM,"[1]; 30 mg/kg daily from week 20, 28-week group, n = 7",4.72 ± 0.65 mg/g dry weight
same,pancreas iron ± SEM,"[1]; 100 mg/kg daily from week 20, 28-week group, n = 6",3.54 ± 0.55 mg/g dry weight
same,"pancreas iron levels, effect in words",[1]; 100 mg/kg dose,clear trend to lower levels
same,"pancreatic iron load, effect in words",[1]; within 8 weeks of treatment,trend to improvement of pancreatic iron load
same,cell viability,pancreatic Min6 cells; [3],increases cell viability
same,labile iron raising in cells,pancreatic Min6 cells; [4],largely prevents labile iron from raising in cells
same,iron-evoked cell damage,pancreatic Min6 cells; [5],reduces iron-evoked cell damage
same,cell viability,pituitary Att20 cells; [3],increases cell viability
same,labile iron raising in cells,pituitary Att20 cells; [4],largely prevents labile iron from raising in cells
same,iron-evoked cell damage,pituitary Att20 cells; [5],reduces iron-evoked cell damage
same,At20 endocrine cell viability and functional properties compromised by iron-catalyzed formation of ROIs,At20 pituitary cells,can preserve both At20 endocrine cell viability and functional properties
same,plasma insulin levels,Diet-induced obese mice,can show a lowering in plasma insulin levels
same,"2 hour prandial glucose levels, HBA1c and fructosamine levels",subjects with IGM,can be reduced
same,early phase insulin secretion,subjects with IGM,can be restored
same,selective removal of iron,[2],effective in the selective removal of iron
